These are literature values, as cited in US20260275225A1, “LIQUID ALKYLATED PHENYL-ALPHA-NAP[…] REDUCED AQUATIC TOXICITY” (BASF SE, priority 2023, published 2026).

The test system of this data set is daphnids. The settings on record: OECD Test 202; from commercially available Amine A safety data sheets.

≈ marks a conversion by molar mass, not a printed value.

Regarding `c1ccc(Nc2cccc3ccccc23)cc1` [Amine A, n-Phenyl-1-naphthylamine], the EC50 is 0.32 µg/mL (≈ 1.46 µM).

As a reminder, the EC50 is the concentration giving half of the maximal effect.
